Data published in publication PMC8445441, “Elucidating the mechanism by which synthetic helper peptides sensitize Pseudomonas aeruginosa to multiple antibiotics” (PLoS Pathogens, 2021).
Read-outs that look alike come from different tables or passages of the source.

Key:
P. aeruginosa HM-214 = conditions: strain HM-214; antibiotic + D-11 (MICb/MICbc 128/4)
How it was run: (§1)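 Values are lowest concentrations showing no visible growth after 18 h at 37 °C. Drugs were serially halved in MHB and combined with equal volumes of a roughly 1 × 10^6 CFU/mL suspension, following CLSI guidance, in triplicate.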

P. aeruginosa AUMC-Pa-1 = conditions: strain AUMC-Pa-1; antibiotic + D-11 (MICb/MICbc 128/4)
How it was run: as §1

P. aeruginosa AUMC-Pa-2 = conditions: strain AUMC-Pa-2; antibiotic + D-11 (MICb/MICbc 64/4)
How it was run: as §1

P. aeruginosa PA14 = assay: microbe, parasite or virus in culture; set-up: MICa: MIC of the antibiotic / MICac: MIC of the antibiotic in the combination: unit not given beside the values; conditions: for FICI: antibiotic + D-11 (MICb/MICbc 128/4); for MICac: MIC of the antibiotic in the combination: with D-11 at MICbc 4
How it was run: as §1

P. aeruginosa ATCC27853 = assay: microbe, parasite or virus in culture; set-up: MICa: MIC of the antibiotic / MICac: MIC of the antibiotic in the combination: unit not given beside the values; conditions: for FICI: antibiotic + D-11 (MICb/MICbc 32/4); for MICac: MIC of the antibiotic in the combination: with D-11 at MICbc 4
How it was run: as §1

P. aeruginosa NR-31041 = assay: microbe, parasite or virus in culture; set-up: MICa: MIC of the antibiotic / MICac: MIC of the antibiotic in the combination: unit not given beside the values; conditions: for FICI: antibiotic + D-11 (MICb/MICbc 64/4); for MICac: MIC of the antibiotic in the combination: with D-11 at MICbc 4
How it was run: as §1

P. aeruginosa NR-31040 = assay: microbe, parasite or virus in culture; set-up: MICa: MIC of the antibiotic / MICac: MIC of the antibiotic in the combination: unit not given beside the values; conditions: strain NR-31040; for FICI: antibiotic + D-11 (MICb/MICbc 128/4); for MICa: MIC of the antibiotic: antibiotic alone; for MICa: MIC of the antibiotic / MICac: MIC of the antibiotic in the combination: unit not given; for MICac: MIC of the antibiotic in the combination: with D-11 at MICbc 4
How it was run: as §1

P. aeruginosa PAK = assay: microbe, parasite or virus in culture; set-up: MICa: MIC of the antibiotic / MICac: MIC of the antibiotic in the combination: unit not given beside the values; conditions: for FICI: antibiotic + D-11 (MICb/MICbc 64/4); for MICac: MIC of the antibiotic in the combination: with D-11 at MICbc 4
How it was run: as §1

[1] = test system: clinical P. aeruginosa isolates; assay: microbe, parasite or virus in culture; conditions: Pseudomonas aeruginosa, 18 h
How it was run: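 MIC is the lowest drug concentration showing no visible growth after 18 h at 37 °C. Two-fold dilutions in MHB were combined with an equal volume of bacterial suspension (about 1 × 10^6 CFU/mL), following CLSI broth microdilution, in triplicate.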

P. aeruginosa AUMC-Pa-3 = assay: microbe, parasite or virus in culture; conditions: for FICI: antibiotic + D-11 (MICb/MICbc 128/4); for MICac: MIC of the antibiotic in the combination: with D-11 at MICbc 4
How it was run: as §1

P. aeruginosa AUMC-Pa-6 = assay: microbe, parasite or virus in culture; conditions: strain AUMC-Pa-6; for FICI: antibiotic + D-11 (MICb/MICbc 64/4); for MICa: MIC of the antibiotic: antibiotic alone; for MICa: MIC of the antibiotic / MICac: MIC of the antibiotic in the combination: unit not given; for MICac: MIC of the antibiotic in the combination: with D-11 at MICbc 4
How it was run: as §1

P. aeruginosa AUMC-Pa-4 = assay: microbe, parasite or virus in culture; conditions: for FICI: antibiotic + D-11 (MICb/MICbc 128/4); for MICac: MIC of the antibiotic in the combination: with D-11 at MICbc 4
How it was run: as §1

P. aeruginosa AUMC-Pa-5 = assay: microbe, parasite or virus in culture; conditions: for FICI: antibiotic + D-11 (MICb/MICbc 64/4); for MICac: MIC of the antibiotic in the combination: with D-11 at MICbc 4
How it was run: as §1

P. aeruginosa PAO1 = assay: microbe, parasite or virus in culture
How it was run: as §1

[2] = strain ATCC27853, unit not given
[3] = strain NR-31041, unit not given
[4] = strain AUMC-Pa-3, unit not given
[5] = strain AUMC-Pa-4, unit not given
[6] = strain AUMC-Pa-5, unit not given

CC[C@H]1OC(=O)[C@H](C)[C@@H](O[C@H]2C[C@@](C)(OC)[C@@H](O)[C@H](C)O2)[C@H](C)[C@@H](O[C@@H]2O[C@H](C)C[C@H](N(C)C)[C@H]2O)[C@](C)(OC)C[C@@H](C)C(=O)[C@H](C)[C@@H](O)[C@]1(C)O [Clarithromycin]
32: MICac: MIC of the antibiotic in the combination (P. aeruginosa PA14; strain PA14, unit not given) | MICac: MIC of the antibiotic in the combination (P. aeruginosa NR-31040) | MICac: MIC of the antibiotic in the combination (P. aeruginosa AUMC-Pa-6) | MICac: MIC of the antibiotic in the combination (P. aeruginosa AUMC-Pa-4; [5]) | MICac: MIC of the antibiotic in the combination (P. aeruginosa AUMC-Pa-5; [6])
0.188: FICI (P. aeruginosa ATCC27853; strain ATCC27853) | FICI (P. aeruginosa NR-31041; strain NR-31041) | FICI (P. aeruginosa PAK; strain PAK) | FICI (P. aeruginosa AUMC-Pa-5; strain AUMC-Pa-5)
0.094: FICI (P. aeruginosa AUMC-Pa-3; strain AUMC-Pa-3)
8: MICac: MIC of the antibiotic in the combination (P. aeruginosa ATCC27853; [2]) | MICac: MIC of the antibiotic in the combination (P. aeruginosa AUMC-Pa-3; [4])
128: MICa: MIC of the antibiotic (P. aeruginosa PA14; strain PA14, antibiotic alone, unit not given) | MICa: MIC of the antibiotic (P. aeruginosa ATCC27853; strain ATCC27853, antibiotic alone, unit not given) | MICa: MIC of the antibiotic (P. aeruginosa NR-31041; strain NR-31041, antibiotic alone, unit not given) | MICa: MIC of the antibiotic (P. aeruginosa NR-31040) | MICa: MIC of the antibiotic (P. aeruginosa PAK; strain PAK, antibiotic alone, unit not given) | MICa: MIC of the antibiotic (P. aeruginosa AUMC-Pa-3; strain AUMC-Pa-3, antibiotic alone, unit not given) | MICa: MIC of the antibiotic (P. aeruginosa AUMC-Pa-6) | MICa: MIC of the antibiotic (P. aeruginosa AUMC-Pa-4; strain AUMC-Pa-4, antibiotic alone, unit not given)
128 µM: MIC ([1]; read-out: Antibiotic sensibility (MIC) of clinical P. aeruginosa isolate AUMC-Pa-1, strain AUMC-Pa-1, antibiotic alone) | MIC ([1]; read-out: Antibiotic sensibility (MIC) of clinical P. aeruginosa isolate AUMC-Pa-2, strain AUMC-Pa-2, antibiotic alone) | MIC ([1]; read-out: Antibiotic sensibility (MIC) of clinical P. aeruginosa isolate AUMC-Pa-3, strain AUMC-Pa-3, antibiotic alone) | MIC ([1]; read-out: Antibiotic sensibility (MIC) of clinical P. aeruginosa isolate AUMC-Pa-4, strain AUMC-Pa-4, antibiotic alone) | MIC ([1]; read-out: Antibiotic sensibility (MIC) of clinical P. aeruginosa isolate AUMC-Pa-6, strain AUMC-Pa-6, antibiotic alone) | MIC ([1]; read-out: Antibiotic sensibility (MIC) of clinical P. aeruginosa isolate HM-214, strain HM-214, antibiotic alone) | MIC ([1]; read-out: Antibiotic sensibility (MIC) of clinical P. aeruginosa isolate NR-31040, strain NR-31040, antibiotic alone) | MIC ([1]; read-out: Antibiotic sensibility (MIC) of clinical P. aeruginosa isolate NR-31041, strain NR-31041, antibiotic alone) | MICa: the MIC of antibiotics (P. aeruginosa PAO1; S1 Table, macrolide alone, PAO1)
0.313: FICI (P. aeruginosa AUMC-Pa-2) | FICI (P. aeruginosa AUMC-Pa-6)
0.156: FICI (P. aeruginosa AUMC-Pa-1)
> 128 µM: MIC ([1]; read-out: Antibiotic sensibility (MIC) of clinical P. aeruginosa isolate AUMC-Pa-5, strain AUMC-Pa-5, antibiotic alone) | MIC (P. aeruginosa AUMC-Pa-5; Pseudomonas aeruginosa, AUMCPA5, 18 h, read-out: MICa: MIC of the antibiotic)
16: MICac: MIC of the antibiotic in the combination (P. aeruginosa NR-31041; [3]) | MICac: MIC of the antibiotic in the combination (P. aeruginosa PAK; strain PAK, unit not given)
0.281: FICI (P. aeruginosa HM-214) | FICI (P. aeruginosa PA14; strain PA14) | FICI (P. aeruginosa NR-31040) | FICI (P. aeruginosa AUMC-Pa-4; strain AUMC-Pa-4)

CO[C@H]1[C@H](OC(=O)c2ccc(C)[nH]2)[C@H](O)[C@@H](Oc2ccc3c(O)c(NC(=O)c4c[nH]c(C(=O)Nc5c(O)c6ccc(O[C@H]7OC(C)(C)[C@@H](OC)[C@H](OC(=O)c8ccc(C)[nH]8)[C@@H]7O)c(C)c6oc5=O)c4C)c(=O)oc3c2C)OC1(C)C [Coumermycin A1]
0.078: FICI (P. aeruginosa NR-31041; strain NR-31041) | FICI (P. aeruginosa PAO1; S3 Table, PAO1, antibiotic + 2 μM D-11)
0.039: FICI (P. aeruginosa AUMC-Pa-1)
0.125: MICac: MIC of the antibiotic in the combination (P. aeruginosa NR-31041; [3]) | FICI (P. aeruginosa PAK; strain PAK)
0.5: MICac: MIC of the antibiotic in the combination (P. aeruginosa PA14; strain PA14, unit not given) | MICac: MIC of the antibiotic in the combination (P. aeruginosa ATCC27853; [2]) | MICac: MIC of the antibiotic in the combination (P. aeruginosa PAK; strain PAK, unit not given) | MICac: MIC of the antibiotic in the combination (P. aeruginosa AUMC-Pa-4; [5])
0.01562 µM: MICac: the MIC for the antibiotic in the combination (P. aeruginosa PAO1; S3 Table, PAO1, with 4 μM D-11)
512 fold: reduction of the MICs (P. aeruginosa PAO1; PAO1, in the presence of 4 μM of D-11)
0.125 µM: MICac: the MIC for the antibiotic in the combination (P. aeruginosa PAO1; S3 Table, PAO1, with 2 μM D-11)
0.156: FICI (P. aeruginosa ATCC27853; strain ATCC27853)
0.035: FICI (P. aeruginosa AUMC-Pa-3; strain AUMC-Pa-3)
0.281: FICI (P. aeruginosa HM-214) | FICI (P. aeruginosa NR-31040)
2: MICac: MIC of the antibiotic in the combination (P. aeruginosa NR-31040) | MICac: MIC of the antibiotic in the combination (P. aeruginosa AUMC-Pa-6) | MICac: MIC of the antibiotic in the combination (P. aeruginosa AUMC-Pa-5; [6])
0.031: MICac: MIC of the antibiotic in the combination (P. aeruginosa AUMC-Pa-3; [4])
8: MICa: MIC of the antibiotic (P. aeruginosa NR-31040) | MICa: MIC of the antibiotic (P. aeruginosa AUMC-Pa-6) | MICa: MIC of the antibiotic (P. aeruginosa AUMC-Pa-5; strain AUMC-Pa-5, antibiotic alone, unit not given)
0.313: FICI (P. aeruginosa AUMC-Pa-6) | FICI (P. aeruginosa AUMC-Pa-5; strain AUMC-Pa-5)
0.094: FICI (P. aeruginosa AUMC-Pa-2) | FICI (P. aeruginosa PA14; strain PA14) | FICI (P. aeruginosa AUMC-Pa-4; strain AUMC-Pa-4)
8 µM: MIC (P. aeruginosa PA14; Pseudomonas aeruginosa, PA14, 18 h, read-out: MICa: MIC of the antibiotic) | MIC (P. aeruginosa ATCC27853; Pseudomonas aeruginosa, ATCC27853, 18 h, read-out: MICa: MIC of the antibiotic) | MIC (P. aeruginosa NR-31041; Pseudomonas aeruginosa, NR31041, 18 h, read-out: MICa: MIC of the antibiotic) | MIC (P. aeruginosa PAK; Pseudomonas aeruginosa, 18 h, read-out: MICa: MIC of the antibiotic) | MIC ([1]; read-out: Antibiotic sensibility (MIC) of clinical P. aeruginosa isolate AUMC-Pa-1) | MIC ([1]; read-out: Antibiotic sensibility (MIC) of clinical P. aeruginosa isolate AUMC-Pa-2) | MIC ([1]; read-out: Antibiotic sensibility (MIC) of clinical P. aeruginosa isolate AUMC-Pa-3) | MIC ([1]; read-out: Antibiotic sensibility (MIC) of clinical P. aeruginosa isolate AUMC-Pa-4) | MIC ([1]; read-out: Antibiotic sensibility (MIC) of clinical P. aeruginosa isolate AUMC-Pa-5) | MIC ([1]; read-out: Antibiotic sensibility (MIC) of clinical P. aeruginosa isolate AUMC-Pa-6) | MIC ([1]; read-out: Antibiotic sensibility (MIC) of clinical P. aeruginosa isolate HM-214) | MIC ([1]; read-out: Antibiotic sensibility (MIC) of clinical P. aeruginosa isolate NR-31040) | MIC ([1]; read-out: Antibiotic sensibility (MIC) of clinical P. aeruginosa isolate NR-31041) | MIC (P. aeruginosa AUMC-Pa-3; Pseudomonas aeruginosa, AUMCPA3, 18 h, read-out: MICa: MIC of the antibiotic) | MIC (P. aeruginosa AUMC-Pa-4; Pseudomonas aeruginosa, AUMCPA4, 18 h, read-out: MICa: MIC of the antibiotic) | MIC (P. aeruginosa PAO1; Pseudomonas aeruginosa, PAO1, 18 h, read-out: MICa: the MIC of antibiotics) | MICa: the MIC of antibiotics (P. aeruginosa PAO1; S3 Table, antibiotic alone, PAO1)
